Series [1] concerns Toxoplasma gondii. The experiment in a line: Antiprotozoal activity against 5 MOI SB-203580-resistant Toxoplasma gondii SBRMe49-2 tachyzoites infected in confluent HFF assessed as inhibition of [3H]uracil incorporation into tachyzoites at 0.25 to 10 uM treated 4 hrs after infection measured after overnight incubation post uracil addition by liquid scintillation counting. In kind it is functional, organism-based.

The subject of series [2] is Mus musculus. Nature of the series: Toxicity in CBA/J mouse at 17 mg/kg, po. Format: organism-based. More on the design: dose 17 mg/kg, route oral. The note with it: in vivo.
In series [3] the test system is Toxoplasma gondii. The experiment in a line: Antiprotozoal activity against 20 Toxoplasma gondii RH tachyzoites infected in CBA/J mouse assessed as prolongation of survival of mous at 30 mg/kg, ip administered 2 hrs postinfection for 7 consecutive days. Format: functional. The note with it: route intraperitoneal.
Series [4] concerns Toxoplasma gondii. The experiment in a line: Antiprotozoal activity against 100 Toxoplasma gondii RH tachyzoites infected in CBA/J mouse survival at 60 mg/kg, ip administered 2 hrs postinfection once daily for 7 consecutive days in presence of pyrimethamine 5 mg/kg, po. In kind it is functional.
The test system of series [5] is Toxoplasma gondii. Nature of the series: Antiprotozoal activity against 100 Toxoplasma gondii RH tachyzoites infected in CBA/J mouse assessed as prolongation of survival of mous at 30 mg/kg, ip administered 24 hrs postinfection twice daily for 7 consecutive days. In kind it is functional, organism-based. Details: dose 30 mg/kg.
The test system of series [6] is Toxoplasma gondii. The experiment in a line: Antiprotozoal activity against 1000 Toxoplasma gondii RH tachyzoites infected in CBA/J mouse assessed as prolongation of survival of mous at 15 mg/kg, ip administered 24 hrs postinfection for 7 consecutive days. In kind it is functional, organism-based. Details: dose 15 mg/kg.
The subject of series [7] is Toxoplasma gondii. Nature of the series: Antiprotozoal activity against 1000 Toxoplasma gondii RH tachyzoites infected in CBA/J mouse assessed as prolongation of survival of mous at 3.8 mg/kg, ip administered 24 hrs postinfection for 7 consecutive days. In kind it is functional, organism-based. Details: dose 3.8 mg/kg.
The subject of series [8] is Mus musculus. The experiment in a line: Toxicity in CBA/J mouse at 50 mg/kg, po. Details: dose 50 mg/kg, route oral. Format: organism-based. The note with it: in vivo.
Series [9] concerns Encephalitozoon cuniculi. Nature of the series: Antiprotozoal activity against Encephalitozoon cuniculi infected in CD8 knockout […] mouse assessed as prolongation of survival of mous-related absence of ascites fluid and sluggishness at 36 mg/kg, ip administered 2 days after infection for 15 consecutive days. In kind it is functional, organism-based. Details: dose 36 mg/kg.

The subject of series [10] is Toxoplasma gondii. Nature of the series: Antiprotozoal activity against 20 Toxoplasma gondii RH tachyzoites infected in CBA/J mouse assessed as prolongation of survival of mous at 50 mg/kg, po administered 2 hrs postinfection for 7 consecutive days. Format: functional, organism-based. Details: dose 50 mg/kg.
Series [11] concerns Mus musculus. Nature of the series: Toxicity in CBA/J mouse assessed as occasional and transient fur ruffling at 60 mg/kg, ip. In kind it is organism-based. The note with it: in vivo. More on the design: dose 60 mg/kg, route intraperitoneal.
In series [12] the test system is Toxoplasma gondii. The experiment in a line: Antiprotozoal activity against 2000Toxoplasma gondii RH tachyzoites infected 30 days after initial 20 parasite infection in CBA/J mouse assessed as mouse survival time at 30 mg/kg, ip administered 2 hrs postinfection for 7 consecutive days. The note with it: route intraperitoneal.
The subject of series [13] is Toxoplasma gondii. Nature of the series: Antiprotozoal activity against 1000 Toxoplasma gondii RH tachyzoites infected in CBA/J mouse assessed as prolongation of survival of mous at 7.5 mg/kg, ip administered 24 hrs postinfection for 7 consecutive days. In kind it is functional, organism-based. More on the design: dose 7.5 mg/kg.
The subject of series [14] is Toxoplasma gondii. The experiment in a line: Antiprotozoal activity against 20 Toxoplasma gondii RH tachyzoites infected in CBA/J mouse assessed as prolongation of survival of mous at 17 mg/kg, po administered 2 hrs postinfection for 7 consecutive days. Format: functional, organism-based. More on the design: dose 17 mg/kg.
Series [15] concerns Toxoplasma gondii. Nature of the series: Antiprotozoal activity against 1000 Toxoplasma gondii RH tachyzoites infected in CBA/J mouse assessed as prolongation of survival of mous at 30 mg/kg, ip administered 24 hrs postinfection for 7 consecutive days. Format: functional, organism-based. More on the design: dose 30 mg/kg.
Series [16] relates to Toxoplasma gondii. The experiment in a line: microbe, parasite or virus in culture. The note with it: RH.
Description: Antiprotozoal activity against 1 MOI Toxoplasma gondii RH tachyzoites infected in confluent HFF assessed as inhibition of [3H]uracil incorporation into tachyzoites treated 4 hrs after infection measured after overnight incubation post uracil addition by liquid scintillation counting
In series [17] the target is Mitogen-activated protein kinase 14 (Homo sapiens, UniProt Q16539).
Mitogen-activated protein kinase 14, sequence (Q16539 whole entry): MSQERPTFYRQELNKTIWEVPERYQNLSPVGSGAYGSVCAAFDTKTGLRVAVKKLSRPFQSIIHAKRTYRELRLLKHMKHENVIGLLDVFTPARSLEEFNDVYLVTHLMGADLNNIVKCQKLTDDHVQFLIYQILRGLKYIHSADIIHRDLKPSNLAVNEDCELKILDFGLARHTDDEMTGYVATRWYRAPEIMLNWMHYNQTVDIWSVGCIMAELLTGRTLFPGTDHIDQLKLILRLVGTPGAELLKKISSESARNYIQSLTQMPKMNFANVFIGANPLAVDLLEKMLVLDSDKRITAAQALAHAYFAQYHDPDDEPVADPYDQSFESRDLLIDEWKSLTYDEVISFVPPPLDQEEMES
Description: Inhibition of human recombinant p38alpha assessed as [gamma33P]ATP utilization by microplate scintillation counting
The test system of series [18] is Toxoplasma gondii. The experiment in a line: Antiprotozoal activity against 2000Toxoplasma gondii RH tachyzoites infected 30 days after initial 100 parasite infection in CBA/J mouse assessed as mouse survival time at 60 mg/kg, ip administered 2 hrs postinfection for 7 consecutive days. To be noted: route intraperitoneal.
Series [19] deals with Toxoplasma gondii. Nature of the series: Antiprotozoal activity against 1000 Toxoplasma gondii RH tachyzoites infected in CBA/J mouse assessed as prolongation of survival of mous at 60 mg/kg, ip administered 24 hrs postinfection for 7 consecutive days. Format: functional, organism-based. Details: dose 60 mg/kg.
Series [20] deals with T1, Mitogen-activated protein kinase 1 (Toxoplasma gondii, UniProt Q5SC61).
T1 sequence (Q5SC61 whole entry): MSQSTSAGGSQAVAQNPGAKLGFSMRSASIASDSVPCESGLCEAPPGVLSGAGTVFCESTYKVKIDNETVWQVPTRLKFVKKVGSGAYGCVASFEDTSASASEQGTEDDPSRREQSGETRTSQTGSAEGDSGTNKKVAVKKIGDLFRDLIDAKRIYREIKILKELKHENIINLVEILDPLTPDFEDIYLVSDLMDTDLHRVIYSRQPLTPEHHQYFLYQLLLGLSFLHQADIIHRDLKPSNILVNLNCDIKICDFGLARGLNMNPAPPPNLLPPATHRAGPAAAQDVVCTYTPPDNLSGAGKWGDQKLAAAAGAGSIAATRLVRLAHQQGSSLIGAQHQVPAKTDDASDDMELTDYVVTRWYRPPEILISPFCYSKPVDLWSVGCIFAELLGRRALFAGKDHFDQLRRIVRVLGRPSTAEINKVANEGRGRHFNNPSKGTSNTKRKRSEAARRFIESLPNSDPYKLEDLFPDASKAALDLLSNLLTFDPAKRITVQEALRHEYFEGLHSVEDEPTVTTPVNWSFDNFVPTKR
The experiment in a line: Inhibition of Toxoplasma gondii recombinant MAPK1 expressed in Escherichia coli. Format: cell-free.

Series [21] deals with Toxoplasma gondii. The experiment in a line: Antiprotozoal activity against 100 Toxoplasma gondii RH tachyzoites infected in CBA/J mouse survival at 60 mg/kg, ip administered 2 hrs postinfection once daily for 7 consecutive days in presence of sulfadiazine 75 mg/liter. In kind it is functional. To be noted: route intraperitoneal.
The test system of series [22] is Toxoplasma gondii. The experiment in a line: Antiprotozoal activity against 100 Toxoplasma gondii RH tachyzoites infected in CBA/J mouse assessed as prolongation of survival of mous at 60 mg/kg, ip administered 24 hrs postinfection once daily for 7 consecutive days. In kind it is functional, organism-based. Details: dose 60 mg/kg.
Series [23] concerns Encephalitozoon cuniculi. The experiment in a line: Antiprotozoal activity against Encephalitozoon cuniculi infected in CD8 knockout […] mouse mouse survival at 6 mg/kg, ip administered 2 days after infection for 15 consecutive days. In kind it is functional, organism-based. Details: dose 6 mg/kg.
In series [24] the test system is Toxoplasma gondii. Nature of the series: Antiprotozoal activity against 100 Toxoplasma gondii RH tachyzoites infected in CBA/J mouse assessed as prolongation of survival of mous at 30 mg/kg, ip twice daily for 7 consecutive days administered 2 hrs postinfection. In kind it is functional, organism-based. More on the design: dose 30 mg/kg.
The test system of series [25] is Toxoplasma gondii. Nature of the series: microbe, parasite or virus in culture. To be noted: ME49.
Description: Antiprotozoal activity against 5 MOI Toxoplasma gondii Me49 tachyzoites infected in confluent HFF assessed as inhibition of [3H]uracil incorporation into tachyzoites treated 4 hrs after infection measured after overnight incubation post uracil addition by liquid scintillation counting
Series [26] has as its system Mus musculus. Nature of the series: Toxicity in CBA/J mouse at 30 mg/kg, ip. In kind it is organism-based. To be noted: in vivo. More on the design: dose 30 mg/kg, route intraperitoneal.
The test system of series [27] is Toxoplasma gondii. The experiment in a line: Antiprotozoal activity against 2000Toxoplasma gondii RH tachyzoites infected 30 days after initial 20 parasite infection in CBA/J mouse assessed as mouse survival time at 60 mg/kg, ip administered 2 hrs postinfection for 7 consecutive days. To be noted: route intraperitoneal.
In series [28] the test system is Toxoplasma gondii. The experiment in a line: Antiprotozoal activity against 20 Toxoplasma gondii RH tachyzoites infected in CBA/J mouse assessed as prolongation of survival of mous at 60 mg/kg, ip administered 2 hrs postinfection for 7 consecutive days. The note with it: route intraperitoneal. In kind it is functional.
Series [29] has as its system Toxoplasma gondii. The experiment in a line: Antiprotozoal activity against 2000Toxoplasma gondii RH tachyzoites infected 30 days after initial 100 parasite infection in CBA/J mouse assessed as mouse survival time at 5 mg/kg, ip administered 2 hrs postinfection for 7 consecutive days. To be noted: route intraperitoneal.
The subject of series [30] is Toxoplasma gondii. The experiment in a line: Antiprotozoal activity against 100 Toxoplasma gondii RH tachyzoites infected in CBA/J mouse survival at 60 mg/kg, ip administered 2 hrs postinfection once daily for 7 consecutive days. In kind it is functional. The note with it: route intraperitoneal.
Series [31] relates to Toxoplasma gondii. Nature of the series: Antiprotozoal activity against 5 MOI wild type Toxoplasma gondii Me49 tachyzoites infected in confluent HFF assessed as inhibition of [3H]uracil incorporation into tachyzoites at 0.25 to 10 uM treated 4 hrs after infection measured after overnight incubation post uracil addition by liquid scintillation counting. In kind it is functional, organism-based.

Active and inactive are the calls of the source. The rule behind the calls is not given here.

On to `Oc1ccc(-c2nc(-c3ccc(F)cc3)c(-c3ccncc3)[nH]2)cc1`, for which the result in the series with Toxoplasma gondii [1] was inactive.
The term IC50 denotes the concentration that inhibits the measured activity by half. In the case of `OCCC#Cc1nc(-c2ccc(F)cc2)c(-c2ccncc2)n1CCCc1ccccc1` [RWJ-67657], the Activity entry with Mus musculus [2] is “Non-toxic”; in the series on Toxoplasma gondii [3], 100%; in the series on Toxoplasma gondii [4], 80%; with Mus musculus [8], “Non-toxic”; in the series with Mus musculus [11] it was “Toxic”; in the series on Toxoplasma gondii [12], 30 days. The Activity with Toxoplasma gondii [18] was 30 days; with Toxoplasma gondii [21], 80%; in the series on Mus musculus [26], “Non-toxic”; with Toxoplasma gondii [27], 30 days; in the series with Toxoplasma gondii [28], 100%; in the series on Toxoplasma gondii [29], 30 days. The molecule further registered an Activity in the series with Toxoplasma gondii [30] of 40%. The outcome in the series on Toxoplasma gondii [1], in the series with Toxoplasma gondii [5], with Toxoplasma gondii [6], in the series with Toxoplasma gondii [7], in the series with Toxoplasma gondii [10] and in the series on Toxoplasma gondii [13] was inactive. Moreover, the outcome in the series on Toxoplasma gondii [14], in the series with Toxoplasma gondii [15], in the series on Toxoplasma gondii [22], in the series with Encephalitozoon cuniculi [23] and in the series with Toxoplasma gondii [24] was inactive. Also, the result with Encephalitozoon cuniculi [9] and with Toxoplasma gondii [19] was Active. The IC50 in the series with Toxoplasma gondii [16] is 5 µM; in [17], 1 µM; in [20], 0.2 µM; in the series on Toxoplasma gondii [25], 0.8 µM.
For the molecule `CCc1nc(-c2ccc(OC)cc2)[nH]c1-c1ccncc1` [SB-202474], the result with Toxoplasma gondii [1] and in the series with Toxoplasma gondii [31] was inactive. Besides, the Activity in the series on Toxoplasma gondii [12], in the series with Toxoplasma gondii [18], with Toxoplasma gondii [27] and with Toxoplasma gondii [29] was 30 days each time.
Consider `C[S+]([O-])c1ccc(-c2nc(-c3ccc(F)cc3)c(-c3ccncc3)[nH]2)cc1` (stereo not drawn) [SB-203580], for which the Activity with Toxoplasma gondii [12], in the series with Toxoplasma gondii [18], with Toxoplasma gondii [27] and with Toxoplasma gondii [29] was 30 days throughout. Besides, the figures for the IC50 in the series with Toxoplasma gondii [16] and in the series with Toxoplasma gondii [25] were 8.5 µM and 2.5 µM, respectively.

The values above are taken from ChEMBL document CHEMBL1152459, “Drugs designed to inhibit human p38 mitogen-activated protein kinase activation treat Toxoplasma gondii and Encephalitozoon cuniculi infection” (Antimicrob Agents Chemother, 2007).
